Assay: Evaluation of solubility of quinolinic acid with respect to pH
Format: physicochemical
Conditions: room temperature (about 23° C.), pH controlled using 28%-ammonia water and 98% sulfuric acid, FIG. 1
Method: Evaluation of solubility of Quinolinic Acid with Respect to pH
Solubility of quinolinic acid in water at room temperature (about 23° C.) with respect to pH was evaluated using a pure quinolinic acid reagent (Sigma-Aldrich Prod. No. P63204), wherein the pH was controlled using a 28%-ammonia water and 98% sulfuric acid).

O=C(O)c1cccnc1C(=O)O [quinolinic acid]
Solubility of quinolinic acid in water with respect to pH: the lower the pH, the lower the solubility

From patent US9452983B2, “Method for refining quinolinic acid” (CJ CHEILJEDANG CORP., priority 2013, dated 2016)
